Results as given in patent EP4230620A1, “SUBSTITUTED N-AMINO-N-BENZOIC ACID URACILS, THEIR SALTS AND USE OF SAID COMPOUNDS AS HERBICIDAL AGENTS” (Bayer Aktiengesellschaft, priority 2022, dated 2023).

Columns and labels:
Type in all cases: in vivo
Amaranthus retroflexus = test: Post-emergence herbicidal action in greenhouse against AMARE; settings: post-emergence spray, 600 l/ha water, visual rating after ca. 3 weeks vs untreated controls, 100% = plants dead, 0% = like control plants
Description: (§1) Biologische Beispiele: • Die folgenden Abkürzungen werden für die in den folgenden Tabellen aufgeführten Kultur- und Schadpflanzen verwendet: ABUTH: Abutilon theophrasti ALOMY: Alopecurus myosuroides AMARE: Amaranthus retroflexus BRSNS: Brassica napus DIGSA: Digitaria sanguinalis ECHCG: Echinochloa crus-galli GLXMA: Glycine max KCHSC: Kochia scoparia LOLRI: Lolium rigidum MATIN: Matricaria inodora ORYZA: Oryza sativa PHPBU: Pharbitis purpurea POLCO: Polygonum convolvulus SETVI: Setaria viridis VERPE: Veronica persica VIOTR: Viola tricolor TRZAS: Triticum aestivum ZEAMX: Zea mays • A. Herbizide Wirkung im Nachauflauf
(§2) Samen von mono- bzw. dikotylen Unkrautpflanzen wurden in Kunststoff- oder Holzfasertöpfen in sandigem Lehmboden ausgelegt, mit Erde abgedeckt und im Gewächshaus unter kontrollierten Wachstumsbedingungen angezogen. 2 bis 3 Wochen nach der Aussaat wurden die Versuchspflanzen im Einblattstadium behandelt. Die in Form von benetzbaren Pulvern (WP) oder als Emulsionskonzentrate (EC) formulierten erfindungsgemäßen Verbindungen wurden dann als wässrige Suspension bzw. Emulsion unter Zusatz von 0,5% Additiv mit einer Wasseraufwandmenge von umgerechnet 600 l/ha auf die grünen Pflanzenteile gesprüht. Nach ca. 3 Wochen Standzeit der Versuchspflanzen im Gewächshaus, unter optimalen Wachstumsbedingungen, wurde die Wirkung der Präparate visuell im Vergleich zu unbehandelten Kontrollen bonitiert. Beispielsweise bedeutet 100% Wirkung = Pflanzen sind abgestorben, 0% Wirkung = wie Kontrollpflanzen.
(§3) In den nachstehenden Tabellen A1 bis A11 sind die Wirkungen ausgewählter Verbindungen der allgemeinen Formel (I) gemäß der Tabelle 1 auf verschiedene Schadpflanzen und einer Aufwandmenge entsprechend 20 g/ha und niedriger, die gemäß zuvor genannter Versuchsvorschrift erhalten wurden, dargestellt. Tabelle A1a: Nachauflaufwirkung bei 1,25 g/ha gegen ABUTH in %

Digitaria sanguinalis = test: Post-emergence herbicidal action in greenhouse against DIGSA; settings: 20 g/ha, visual rating after ca. 3 weeks
Description: as §1, §2, §3

Matricaria inodora = test: Post-emergence herbicidal action in greenhouse against MATIN; settings: 20 g/ha, visual rating after ca. 3 weeks
Description: as §1, §2, §3

Pharbitis purpurea = test: Post-emergence herbicidal action in greenhouse against PHBPU; settings: visual rating after ca. 3 weeks
Description: as §1, §2, §3

Polygonum convolvulus = test: Post-emergence herbicidal action in greenhouse against POLCO; settings: visual rating after ca. 3 weeks
Description: as §1, §2, §3

Setaria viridis = test: Post-emergence herbicidal action in greenhouse against SETVI; settings: visual rating after ca. 3 weeks
Description: as §1, §2, §3

Veronica persica = test: Post-emergence herbicidal action in greenhouse against VERPE; settings: 20 g/ha, visual rating after ca. 3 weeks
Description: as §1, §2, §3

Viola tricolor = test: Post-emergence herbicidal action in greenhouse against VIOTR; settings: visual rating after ca. 3 weeks
Description: as §1, §2, §3

Zea mays = test: Post-emergence action on crop plants in greenhouse, ZEAMX; settings: 1,25 g/ha, crop plant, post-emergence, visual rating after ca. 3 weeks; 100% = plants dead, 0% = like control plants
Description: as §1
as §2, with “Kulturpflanzen” for “Unkrautpflanzen”
as §3, with “B1” for “A1”, “B4” for “A11”, “Kulturpflanzen” for “Schadpflanzen”, “B1a:” for “A1a:”, “ZEAMX” for “ABUTH”

Triticum aestivum = test: Post-emergence action on crop plants in greenhouse, TRZAS; settings: crop plant, visual rating after ca. 3 weeks, 100% = plants dead, 0% = like control plants
Description: as §1
as §2, with “Kulturpflanzen” for “Unkrautpflanzen”
as §3, with “B1” for “A1”, “B4” for “A11”, “Kulturpflanzen” for “Schadpflanzen”, “B1a:” for “A1a:”, “ZEAMX” for “ABUTH”

Oryza sativa = test: Post-emergence action on crop plants in greenhouse, ORYZA; settings: crop plant, visual rating after ca. 3 weeks, 100% = plants dead, 0% = like control plants
Description: as §1
as §2, with “Kulturpflanzen” for “Unkrautpflanzen”
as §3, with “B1” for “A1”, “B4” for “A11”, “Kulturpflanzen” for “Schadpflanzen”, “B1a:” for “A1a:”, “ZEAMX” for “ABUTH”

Brassica napus = test: Post-emergence action on crop plants in greenhouse, BRSNS; settings: crop plant; 1,25 g/ha; post-emergence spray, 600 l/ha water; visual rating after ca. 3 weeks vs untreated controls; 100% = plants dead, 0% = like control plants
Description: as §1
Samen von mono- bzw. dikotylen Kulturpflanzen wurden in Kunststoff- oder Holzfasertöpfen in sandigem Lehmboden ausgelegt, mit Erde abgedeckt und im Gewächshaus unter kontrollierten Wachstumsbedingungen angezogen. 2 bis 3 Wochen nach der Aussaat wurden die Versuchspflanzen im Einblattstadium behandelt. Die in Form von benetzbaren Pulvern (WP) oder als Emulsionskonzentrate (EC) formulierten erfindungsgemäßen Verbindungen wurden dann als wässrige Suspension bzw. Emulsion unter Zusatz von 0,5% Additiv mit einer Wasseraufwandmenge von umgerechnet 600 l/ha auf die grünen Pflanzenteile gesprüht. […]

Nachauflaufwirkung gegen ZEAMX (Zea mays): 20%
Nachauflaufwirkung gegen TRZAS (Triticum aestivum; 1,25 g/ha): 0%
Nachauflaufwirkung gegen TRZAS (Triticum aestivum; 5 g/ha): 0%
Nachauflaufwirkung gegen TRZAS (Triticum aestivum; 20 g/ha): 20%
Nachauflaufwirkung gegen ORYZA (Oryza sativa; 1,25 g/ha): 0%
Nachauflaufwirkung gegen ORYZA (Oryza sativa; 5 g/ha): 0%
Nachauflaufwirkung gegen ORYZA (Oryza sativa; 20 g/ha): 0%
SMILES: CC(C)(OC(=O)c1cc(-n2c(=O)cc(C(F)(F)F)n(N)c2=O)ccc1Cl)C(=O)O [I.2-481, 2-({5-[3-Amino-2,6-dioxo-4-(trifluormethyl)-3,6-dihydropyrimidin-1(2H)-yl]-2-chlorbenzoyl}oxy)-2-methylpropansäure]
Nachauflaufwirkung gegen AMARE (Amaranthus retroflexus; 1,25 g/ha): 90%
Nachauflaufwirkung gegen AMARE (Amaranthus retroflexus; 5 g/ha): 100%
Nachauflaufwirkung gegen AMARE (Amaranthus retroflexus; 20 g/ha): 100%
Nachauflaufwirkung gegen DIGSA (Digitaria sanguinalis): 100%
Nachauflaufwirkung gegen MATIN (Matricaria inodora): 100%
Nachauflaufwirkung gegen PHBPU (Pharbitis purpurea; 5 g/ha): 100%
Nachauflaufwirkung gegen PHBPU (Pharbitis purpurea; 20 g/ha): 100%
Nachauflaufwirkung gegen POLCO (Polygonum convolvulus; 5 g/ha): 100%
Nachauflaufwirkung gegen POLCO (Polygonum convolvulus; 20 g/ha): 100%
Nachauflaufwirkung gegen SETVI (Setaria viridis; 1,25 g/ha): 80%
Nachauflaufwirkung gegen SETVI (Setaria viridis; 5 g/ha): 90%
Nachauflaufwirkung gegen SETVI (Setaria viridis; 20 g/ha): 100%
Nachauflaufwirkung gegen VERPE (Veronica persica): 100%
Nachauflaufwirkung gegen VIOTR (Viola tricolor; 5 g/ha): 80%
Nachauflaufwirkung gegen VIOTR (Viola tricolor; 20 g/ha): 100%
Nachauflaufwirkung gegen BRSNS (Brassica napus): 0%
